Structures are written as SMILES. pIC50: −log10 of the molar value.

Here are results for one molecule from PMC6361133, “A chemical-genetics approach to study the role of atypical Protein Kinase C in Drosophila” (Development (Cambridge, England), 2019).

The experiment has as its target atypical Protein Kinase C (aPKC), analogue-sensitive aPKC^as4 (Drosophila melanogaster, UniProt A1Z9X0, I342A/T405A). Briefly: in vitro […]-ATP peptide kinase assay with immunoprecipitated FLAG-aPKC ([…] ATP, […] MgCl2). Type of experiment: biochemical.

atypical Protein Kinase C (aPKC), analogue-sensitive aPKC^as4, sequence (A1Z9X0 whole entry I342A/T405A): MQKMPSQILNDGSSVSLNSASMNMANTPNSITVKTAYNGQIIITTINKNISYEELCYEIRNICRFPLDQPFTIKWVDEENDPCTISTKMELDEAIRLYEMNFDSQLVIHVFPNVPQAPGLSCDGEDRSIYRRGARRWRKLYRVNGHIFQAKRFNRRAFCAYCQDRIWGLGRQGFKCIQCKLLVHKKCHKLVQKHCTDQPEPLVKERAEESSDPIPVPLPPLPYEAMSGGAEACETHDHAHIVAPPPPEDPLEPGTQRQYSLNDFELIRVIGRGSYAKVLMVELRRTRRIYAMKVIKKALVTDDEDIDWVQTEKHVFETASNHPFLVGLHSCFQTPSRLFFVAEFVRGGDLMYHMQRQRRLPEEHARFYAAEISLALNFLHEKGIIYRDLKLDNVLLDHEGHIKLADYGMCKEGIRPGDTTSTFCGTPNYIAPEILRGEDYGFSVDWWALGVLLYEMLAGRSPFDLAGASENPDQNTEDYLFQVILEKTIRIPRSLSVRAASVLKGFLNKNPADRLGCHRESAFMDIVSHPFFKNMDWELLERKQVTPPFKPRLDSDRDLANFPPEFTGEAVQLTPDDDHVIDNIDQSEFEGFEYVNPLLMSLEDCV

As for `CC(C)(C)n1nc(-c2cccc3ccccc23)c2c(N)ncnc21` [1NA-PP1], the pIC50 was ~7.00.

The pIC50 is −log10 of the IC50, conventionally taken in molar units. Read a low pIC50 as a high IC50.
